Data as given in patent US4313943A, “7-Chloro-2,3-dihydro-5-phenyl-1-propargyl-1H-1,4-benzodiazepine-2-one, and a pharmaceutical composition thereof” (priority 1972, dated 1982).

Experiments:
[1] = Acute toxicity comparison (LD50, Litchfield and Wilcoxan); details: in vivo; Table 11; oral; species not given
Description: Toxicity in test animals to the test compounds in terms of LD50 after oral and intraperitoneal administration was determined according to the procedure of Litchfield and Wilcoxan (1949) and the hypnotic effect on test animals was determined in accordance with the method of Janssen (1959).

[2] = Modifications in the electrocorticogram (ECoG) of unanesthetized animals, R index; format: in vivo
Description: Twenty-four hours prior to the test, the surface of a test animal's skull was exposed and stainless steel electrodes were screwed through the lamina externa to make contact with the dura matter in the frontal, parietal and occipital regions, on both sides of the median and transverse sutures. The ECoG was recorded on a REEGA MINI HUIT (Alvar Electronic) encephalograph with a transverse circuit, with bi-frontal, bi-parietal and bi-occipital leads and a longitudinal circuit, with fronto-pariental and parieto-occipital leads on both left and right. One track was used to record respiration, with leads from two steel needles placed under the shin, on either side of the thorax.
Some test animals were kept in restraint cases placed in a relatively soundproof room and some were left free to move in metal cases measuring 40×50×30 cm, which were also kept in a relatively quiet environment.
The activity of the test compounds studied was judged on the one hand by the pattern of spontaneous electrogenesis, especially by the relative degree to which the three basic rhythms of the ECoG in the animals were represented; the theta rhythm (4-8 c/sec.), predominant and characteristic of the state of wakefulness in the posterior regions; bursts of rapid spiked waves (alpha rhythm, 9-15 c/sec.) recorded in the course of diffused wakefulness, and slow waves (delta rhythm, 0.5-3 c/sec.) which are absent in a state of wakefulness except in pathological conditions or in the presence of medicinal substances, a rhythm characteristic of slow-wave sleep. The rapid, low-voltage beta rhythm, not very characteristic of the ECoG in the test animals used and primarily superimposed on the other rhythms, was not analyzed.
Possible modifications in cortical reactivity were also investigated, using two types of stimulation, one comprised an auditory stimulus (whistle blasts) and the other a nociceptive stimulus delivered to the cutaneous nerve endings by pinching the dorsal skin with Kocher's clamps.
To the foregoing qualitative analysis, a quantitative analysis concerning the evolution of spontaneous electrogenesis under the influence of test compounds 1 and 4 was added. The activity of the two compounds was judged by variations in an "R" index, defined as the ratio between the theta waking rhythm, slow waves and bursts of rapid spiked waves. Initially, R was evaluated quantitatively on a scale from 0 to 4 and after this initial estimate, variations in the R index were rated on a scale from 0 to 5 as follows:
1. Maintenance of the value calculated in making the reference tracking (basal value) 0 since variation is nil.
2. Reduction in basal values
(a) reduction of basal value by one-half -1.
(b) observed value between 1/2 and 1/5 of basal value -2.
(c) observed value between 1/5 and 1/10 of basal value -3.
(d) observed value between 1/10 and 1/20 of basal value -4.
(e) observed value lower than 1/20 of basal value, reflecting maximum perturbation of spontaneous ECoG and expressing either a pathological condition or a state of slow-wave sleep, with the absence of theta rhythms and the exclusive presence of slow waves and/or bursts of rapid spiked waves -5.
Once the various values were allocated to each animal, the mean of these values were calculated for each experimental period. From these means, calculations were made of the percentages of variation as compared to a theoretical maximum value of -5 for each experimental period. The percentage for each period was calculated every 30 minutes for 7 hours, with a theoretical total of -10 per hour, then between 7 and 48 hours (theoretical total […]) and between the time of administering the test compound and the 48th hour (theoreticaltotal -90). Variations of 10% were not regarded as significant. All dosages were administered intragastrically through the esophageal tube. […]

[3] = Effect on muscular relaxation in mice (30° inclined screen, Randall); format: in vivo
Description: The method utilized was the procedure described by Randall (1961) using a 30° inclined screen.

[4] = 7.5 mg/kg intragastric, 2 Hours
[5] = 7.5 mg/kg intragastric, 3 Hours
[6] = 7.5 mg/kg intragastric, 4 Hours
[7] = 7.5 mg/kg intragastric, 5 Hours
[8] = 7.5 mg/kg intragastric, 6 Hours
[9] = 7.5 mg/kg intragastric, 7 Hours
[10] = 7.5 mg/kg intragastric, 48 Hours (7-48 h)
[11] = 7.5 mg/kg intragastric, After 48 Hours (0-48 h total)
[12] = 15.0 mg/kg intragastric, 1 Hour
[13] = 15.0 mg/kg intragastric, 2 Hours
[14] = 15.0 mg/kg intragastric, 3 Hours
[15] = 15.0 mg/kg intragastric, 4 Hours
[16] = 15.0 mg/kg intragastric, 5 Hours
[17] = 15.0 mg/kg intragastric, 6 Hours
[18] = 15.0 mg/kg intragastric, 7 Hours
[19] = 15.0 mg/kg intragastric, 48 Hours (7-48 h)
[20] = 15.0 mg/kg intragastric, After 48 Hours (0-48 h total)
[21] = 30.0 mg/kg intragastric, 1 Hour
[22] = 30.0 mg/kg intragastric, 2 Hours
[23] = 30.0 mg/kg intragastric, 3 Hours
[24] = 30.0 mg/kg intragastric, 4 Hours
[25] = 30.0 mg/kg intragastric, 5 Hours
[26] = 30.0 mg/kg intragastric, 6 Hours
[27] = 30.0 mg/kg intragastric, 7 Hours
[28] = 30.0 mg/kg intragastric, 48 Hours (7-48 h)
[29] = 30.0 mg/kg intragastric, After 48 Hours (0-48 h total)

C#CCN1C(=O)CN=C(c2ccccc2Cl)c2cc(Cl)ccc21 [Compound 4, 7-chloro-2,3-dihydro-5-(2-chlorophenyl)-1-propargyl-1,H-1,4-benzodiazepine-2-one]
LD50 [1]: > 5000 mg/kg | duration of effect on spontaneous electrogenesis ([2]; 1.5 mg/kg): 2 h | latency of the effects ([2]; 1.5 mg/kg): 25 min | average duration of effect on spontaneous electrogenesis ([2]; 3.75 mg/kg): 4 h | R index variation, Mean ([2]; 7.5 mg/kg intragastric, 1 Hour): -9.5 | R index, % of Variation ([2]; 7.5 mg/kg intragastric, 1 Hour): -63.3% | R index variation, Mean [2, 4]: -7.5 | R index, % of Variation [2, 4]: -75.0% | R index variation, Mean [2, 5]: -6.0 | R index, % of Variation [2, 5]: -60.0% | R index variation, Mean [2, 6]: -3.0 | R index, % of Variation [2, 6]: -30.0% | R index variation, Mean [2, 7]: -4.5 | R index, % of Variation [2, 7]: -45.0% | R index variation, Mean [2, 8]: -1.5 | R index, % of Variation [2, 8]: -15.0% | R index variation, Mean [2, 9]: -1.00 | R index, % of Variation [2, 9]: -10.0% | R index variation, Mean [2, 10]: 0 | R index, % of Variation [2, 10]: 0% | R index variation, Mean [2, 11]: -33.0 | R index, % of Variation [2, 11]: -36.7% | R index variation, Mean [2, 12]: -13.0 | R index, % of Variation [2, 12]: -86.7% | R index variation, Mean [2, 13]: -8.5 | R index, % of Variation [2, 13]: -85.0% | R index variation, Mean [2, 14]: -7.0 | R index, % of Variation [2, 14]: -70.0% | R index variation, Mean [2, 15]: -5.5 | R index, % of Variation [2, 15]: -55.0% | R index variation, Mean [2, 16]: -5.0 | R index, % of Variation [2, 16]: -50.0% | R index variation, Mean [2, 17]: -1.5 | R index, % of Variation [2, 17]: -15.0% | R index variation, Mean [2, 18]: -1.50 | R index, % of Variation [2, 18]: -15.0% | R index variation, Mean [2, 19]: +1.50 | R index, % of Variation [2, 19]: +10.0% | R index variation, Mean [2, 20]: -40.5 | R index, % of Variation [2, 20]: -45.0% | Cortical reactivity induced by exteroceptive stimulation ([2]; 30 mg/kg): remained unchanged | R index variation, Mean [2, 21]: -6.99 | R index, % of Variation [2, 21]: -46.7% | R index variation, Mean [2, 22]: -5.32 | R index, % of Variation [2, 22]: -53.2% | R index variation, Mean [2, 23]: -6.32 | R index, % of Variation [2, 23]: -63.2% | R index variation, Mean [2, 24]: -4.99 | R index, % of Variation [2, 24]: -49.9% | R index variation, Mean [2, 25]: -2.99 | R index, % of Variation [2, 25]: -29.9% | R index variation, Mean [2, 26]: -2.33 | R index, % of Variation [2, 26]: -23.3% | R index variation, Mean [2, 27]: -0.66 | R index, % of Variation [2, 27]: -6.6% | R index variation, Mean [2, 28]: -1.98 | R index, % of Variation [2, 28]: -13.2% | R index variation, Mean [2, 29]: -31.58 | R index, % of Variation [2, 29]: -35.1% | duration of effects on spontaneous electrogenesis ([2]; 7.5, 15 and 30 mg/kg): at least 5 hours | % Relaxed Animals ([3]; 2 mg/kg/os): 40% | % Relaxed Animals ([3]; 8 mg/kg/os): 60% | % Relaxed Animals ([3]; 32 mg/kg/os): 80% | Potency Against Comp. 1 ([3]; C.L. (1.67-18.80), X^2 parallelism 2.03): 5.60 | ED50 ([3]; Mus musculus, po, muscular relaxation, read-out: ED50 (and C.L.)): 3.93 mg/kg
